“Also recorded” adds a separate entry of the source. Like-named read-outs stand apart in the source and are kept apart here. Values belong to the compound of their own block, whether it stands above or below them.
Columns and labels:
ENL [1] = biological target: T1, ENL (Homo sapiens, UniProt Q03111); assay: ENL degradation by immunoblot; type: cell-based; details: for DC50: read-out: ENL DC50, 4 h treatment
T1 sequence (Q03111 1-559): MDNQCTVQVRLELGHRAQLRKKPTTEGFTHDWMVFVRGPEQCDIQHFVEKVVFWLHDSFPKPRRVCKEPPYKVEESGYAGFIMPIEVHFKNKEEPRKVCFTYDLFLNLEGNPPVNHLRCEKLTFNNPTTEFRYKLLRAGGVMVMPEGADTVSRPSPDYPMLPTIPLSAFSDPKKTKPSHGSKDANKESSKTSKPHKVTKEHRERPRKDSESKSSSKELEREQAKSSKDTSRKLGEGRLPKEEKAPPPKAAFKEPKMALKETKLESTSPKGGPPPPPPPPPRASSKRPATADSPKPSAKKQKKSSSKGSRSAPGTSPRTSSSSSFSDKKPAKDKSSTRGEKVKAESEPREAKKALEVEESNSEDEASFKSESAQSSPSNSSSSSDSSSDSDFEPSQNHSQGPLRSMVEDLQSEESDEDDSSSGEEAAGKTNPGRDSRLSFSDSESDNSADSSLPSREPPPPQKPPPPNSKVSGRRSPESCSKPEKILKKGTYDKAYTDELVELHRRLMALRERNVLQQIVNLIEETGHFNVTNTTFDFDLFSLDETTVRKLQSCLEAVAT

AF9 (V5) = AF9 (V5) (Homo sapiens, UniProt P42568); assay: AF9-V5 degradation by immunoblot in MOLM-13 cells; type: cell-based; details: 4 h treatment
MV4;11 cells [2] = assay: TMT-based whole proteome analysis of MV4; type: cell-based, human; details: 10 μM
ENL(YEATS)-HiBiT = ENL(YEATS)-HiBiT (Homo sapiens, UniProt Q03111); assay: ENL; type: cell-based
ENL YEATS domain [3] = biological target: T2, ENL YEATS domain (Homo sapiens, UniProt Q03111); assay: ENL-H3K27cr HTRF
T2 sequence (Q03111 1-148): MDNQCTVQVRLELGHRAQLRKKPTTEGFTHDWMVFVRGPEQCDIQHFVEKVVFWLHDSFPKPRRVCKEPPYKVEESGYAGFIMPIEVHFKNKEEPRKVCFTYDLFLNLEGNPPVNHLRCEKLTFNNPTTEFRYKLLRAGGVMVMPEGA

AF9 YEATS domain = AF9 YEATS domain (Homo sapiens, UniProt P42568); assay: AF9 YEATS HTRF; type: binding
AF9(YEATS)-HiBiT = AF9(YEATS)-HiBiT (Homo sapiens, UniProt P42568); assay: AF9; type: cell-based
BRD4 BD1 = BRD4 BD1 (Homo sapiens, UniProt O60885); assay: BRD4 BD1 HTRF counter-screen; type: binding
YEATS4 YEATS domain = YEATS4 YEATS domain (Homo sapiens, UniProt O95619); assay: SPR, biotinylated YEATS4 YEATS; type: binding
[4] = biological target: YSK4 (also known as MAP3K19) (Homo sapiens, UniProt Q56UN5); assay: KdELECT affinity determination of scanMAX hits; type: binding
MV4;11 cells [5] = assay: qRT-PCR transcript abundance in MV4; type: cell-based, human
MV4;11 cells [6] = assay: Quant-seq 3′ mRNA sequencing in MV4; type: cell-based, human; details: MV4;11, 4 h
MV4;11 = assay: Cell proliferation assay; type: cell-based, human; details: MV4;11 (MLL-AF4 AML), ∼2 weeks
MOLM-13 = assay: Cell proliferation assay; type: cell-based; details: MOLM-13 (MLL-AF9 AML), ∼2 weeks
OCI/AML-2 = assay: Cell proliferation assay; type: cell-based; details: OCI/AML-2 (MLL-AF6 AML), ∼2 weeks
HB11;19 = assay: Cell proliferation assay; type: cell-based; details: HB11;19 (MLL-ENL fusion), ∼2 weeks
JURKAT = assay: Cell proliferation assay; type: cell-based; details: JURKAT (T-cell ALL), ENL-insensitive
HL-60 = assay: Cell proliferation assay; type: cell-based; details: HL-60 (MLL wild-type AML), ENL-insensitive
MOLT-4 = assay: Cell proliferation assay; type: cell-based; details: MOLT-4 (T-cell ALL), up to 10 μM
786-O = assay: Cell proliferation assay; type: cell-based; details: 786-O (renal cell carcinoma), 10 μM
MV4;11 cells [7] = assay: 72 h viability assay; type: cell-based, human; details: MV4;11, 72 h
MV4;11 cells [8] = assay: Cell cycle analysis; type: cell-based, human; details: MV4;11, 72 h
ENL YEATS domain [9] = biological target: T2, ENL YEATS domain; details: 1 μM
ENL [10] = biological target: T1, ENL; assay: ENL ChIP-qPCR / ChIP-seq in MV4
468 kinases = assay: KINOMEscan profiling; details: 10 μM, 468 kinases tested
YEATS2 YEATS domain = YEATS2 YEATS domain (Homo sapiens, UniProt Q9ULM3); assay: Modified histone peptide array, YEATS2 YEATS; details: 10 and 50 μM
32 bromodomains = assay: BROMOscan profiling; details: 10 μM
[11] = ENL-H3K27cr HTRF IC50, purified compound

Sequence of AF9 YEATS domain (P42568 1-138 limits assumed): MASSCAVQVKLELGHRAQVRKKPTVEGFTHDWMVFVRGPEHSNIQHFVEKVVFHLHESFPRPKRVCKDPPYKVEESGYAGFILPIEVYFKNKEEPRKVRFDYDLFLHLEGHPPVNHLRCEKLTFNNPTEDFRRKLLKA
Sequence of AF9(YEATS)-HiBiT (P42568 1-138 limits assumed): as above
Sequence of YEATS2 YEATS domain (Q9ULM3 200-345 limits assumed): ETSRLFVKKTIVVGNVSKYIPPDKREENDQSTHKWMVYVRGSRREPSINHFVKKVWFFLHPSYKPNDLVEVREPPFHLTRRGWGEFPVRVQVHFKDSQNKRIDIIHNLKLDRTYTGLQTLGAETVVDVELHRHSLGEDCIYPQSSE
Sequence of YEATS4 YEATS domain (O95619 13-158): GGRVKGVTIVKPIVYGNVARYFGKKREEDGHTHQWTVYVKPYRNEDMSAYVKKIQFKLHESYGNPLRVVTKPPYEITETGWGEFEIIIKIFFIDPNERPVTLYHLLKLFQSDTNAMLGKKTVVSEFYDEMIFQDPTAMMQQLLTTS
Sequence of AF9 (V5) (P42568 whole entry): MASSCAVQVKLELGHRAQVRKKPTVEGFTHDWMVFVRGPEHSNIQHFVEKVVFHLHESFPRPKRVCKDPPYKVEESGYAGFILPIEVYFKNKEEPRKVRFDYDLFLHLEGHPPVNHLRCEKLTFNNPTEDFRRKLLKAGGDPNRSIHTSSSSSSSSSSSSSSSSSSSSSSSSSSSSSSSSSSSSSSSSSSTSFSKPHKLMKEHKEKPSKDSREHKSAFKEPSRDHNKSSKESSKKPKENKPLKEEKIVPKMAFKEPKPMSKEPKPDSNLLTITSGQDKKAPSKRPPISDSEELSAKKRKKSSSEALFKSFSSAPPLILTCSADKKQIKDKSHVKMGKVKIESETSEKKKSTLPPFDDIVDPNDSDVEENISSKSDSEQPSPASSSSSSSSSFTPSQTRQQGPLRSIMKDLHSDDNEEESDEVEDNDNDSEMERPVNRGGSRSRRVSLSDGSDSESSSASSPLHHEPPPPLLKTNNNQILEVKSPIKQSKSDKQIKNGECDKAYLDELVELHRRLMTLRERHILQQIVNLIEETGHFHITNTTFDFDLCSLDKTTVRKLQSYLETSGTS
Sequence of YSK4 (also known as MAP3K19) (Q56UN5 whole entry): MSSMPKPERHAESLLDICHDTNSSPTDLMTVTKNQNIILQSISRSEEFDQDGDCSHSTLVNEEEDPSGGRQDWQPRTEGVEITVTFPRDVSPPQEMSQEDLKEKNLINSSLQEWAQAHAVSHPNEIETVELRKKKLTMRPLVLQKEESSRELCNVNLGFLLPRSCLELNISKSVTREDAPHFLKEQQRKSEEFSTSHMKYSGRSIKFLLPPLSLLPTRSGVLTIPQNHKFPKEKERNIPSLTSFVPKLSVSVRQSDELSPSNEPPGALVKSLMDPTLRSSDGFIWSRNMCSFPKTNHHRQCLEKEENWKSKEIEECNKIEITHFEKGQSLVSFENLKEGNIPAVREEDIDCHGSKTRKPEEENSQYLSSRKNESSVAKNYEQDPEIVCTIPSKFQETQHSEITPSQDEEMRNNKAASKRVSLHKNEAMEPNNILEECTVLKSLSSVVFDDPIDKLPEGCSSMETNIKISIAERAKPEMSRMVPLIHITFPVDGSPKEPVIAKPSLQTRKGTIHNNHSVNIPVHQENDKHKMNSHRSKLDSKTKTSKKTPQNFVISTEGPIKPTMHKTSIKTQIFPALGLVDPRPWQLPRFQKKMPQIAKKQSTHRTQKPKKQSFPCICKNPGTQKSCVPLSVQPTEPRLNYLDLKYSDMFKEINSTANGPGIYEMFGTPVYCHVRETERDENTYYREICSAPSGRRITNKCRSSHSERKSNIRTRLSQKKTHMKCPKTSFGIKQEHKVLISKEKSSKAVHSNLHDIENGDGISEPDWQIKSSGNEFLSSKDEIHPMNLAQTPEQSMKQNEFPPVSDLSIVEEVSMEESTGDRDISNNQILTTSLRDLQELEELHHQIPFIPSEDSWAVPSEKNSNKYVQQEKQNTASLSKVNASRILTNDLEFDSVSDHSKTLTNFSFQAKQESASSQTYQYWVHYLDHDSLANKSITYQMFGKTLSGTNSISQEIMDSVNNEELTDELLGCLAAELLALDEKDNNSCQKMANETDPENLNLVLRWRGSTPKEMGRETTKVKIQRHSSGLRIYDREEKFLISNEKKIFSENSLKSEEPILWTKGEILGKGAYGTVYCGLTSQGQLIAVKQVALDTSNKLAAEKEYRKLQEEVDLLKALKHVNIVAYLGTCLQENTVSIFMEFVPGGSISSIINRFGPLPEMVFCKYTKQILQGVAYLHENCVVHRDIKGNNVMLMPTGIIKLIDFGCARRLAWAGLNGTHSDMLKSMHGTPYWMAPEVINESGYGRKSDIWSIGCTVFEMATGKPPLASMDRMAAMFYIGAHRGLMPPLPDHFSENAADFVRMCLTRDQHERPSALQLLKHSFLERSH

- time ENL degradation is sustained by a single dose (ENL [1]; 10 μM): 24 h
- time to maximal ENL degradation (ENL [1]; 10 μM, MV4;11 cells): ≤ 4 h
- DC50 (ENL [1]; MOLM-13 cells): 311 nM
- DC50 (ENL [1]; OCI/AML-2 cells): 1650 nM
- degradation of exogenously expressed AF9-V5 (AF9 (V5)): degraded
- off-target degradation of IKZF1 (MV4;11 cells [2]): weak off-target degradation
Structure (SMILES): O=C(COc1cccc2c1C(=O)N(C1CCC(=O)NC1=O)C2=O)NCCOCCOCCNS(=O)(=O)Nc1cccc(-c2cn3cc(C(=O)NC4CCC4)ccc3n2)c1 (stereo not drawn) [SR-1114, N-Cyclobutyl-2-(3-((N-(2-(2-(2-(2-((2-(2,6-dioxopiperidin-3-yl)-1,3-dioxoisoindolin-4-yl)oxy)acetamido)ethoxy)ethoxy)ethyl)sulfamoyl)amino)phenyl)imidazo[1,2-a]pyridine-6-carboxamide]
- change in ENL abundance across the proteome (MV4;11 cells [2]; 4 and 16 h): strongest change in abundance across the proteome
- abundance of ENL target genes (HOXA10, MYC, MYB, FLT3, ZEB2, SATB1) (MV4;11 cells [2]; 16 h): preferential suppression of multiple ENL target genes
- abundance of myeloid differentiation marker CD11b (MV4;11 cells [2]; 16 h): increased the abundance

- EC50 (ENL(YEATS)-HiBiT): 1500 nM
- IC50 (ENL YEATS domain [3]; ENL YEATS HTRF IC50, purified compound): 230 nM
- IC50 (ENL YEATS domain [3]; [11]): 232 nM
- improvement in potency compared to the initial screening hit (ENL YEATS domain [3]; HTRF IC50 ratio): 30 fold
Structure (SMILES): CC(C)NC(=O)c1ccc2nc(-c3cccc(NS(=O)(=O)NCCc4c[nH]cn4)c3)cn2c1 [compound 7]

- IC50 (AF9 YEATS domain): 311 nM
- EC50 (AF9(YEATS)-HiBiT): 76 nM
- activity against BRD4 BD1 by HTRF (BRD4 BD1): inactive
- binding to the YEATS4 YEATS domain by SPR (YEATS4 YEATS domain): virtually no binding
- lower affinity for YSK4 than for ENL YEATS [4]: over 100 fold
- transcript abundance of HMGCR and HMGCS1 (SREBP targets, off-target effect) (MV4;11 cells [5]; MV4;11, most prominent at 10 μM): upregulation
- ENL recognition of acetyllysine on histone peptide arrays (ENL YEATS domain [9]): completely inhibited
- ENL ChIP-seq signal genome-wide (ENL [10]; MV4;11): bulk displacement of ENL from chromatin
- ENL ChIP-qPCR enrichment at ENL binding sites (HOXA10 gene body, MYB promoter) (ENL [10]; MV4;11, 4 h): dose-dependent eviction of ENL
- YEATS2 recognition of acetyllysine on histone peptide arrays (YEATS2 YEATS domain): minimal effects
Structure (SMILES): O=C(NC1CCC1)c1ccc2nc(-c3cccc(NS(=O)(=O)NCCN4CCCCC4)c3)cn2c1 [SR-0813, N-Cyclobutyl-2-(3-((N-(2-(piperidin-1-yl)ethyl)sulfamoyl)amino)phenyl)imidazo[1,2-a]pyridine-6-carboxamide]
- abundance of the ITGAM transcript (CD11b) (MV4;11 cells [5]; MV4;11): increased abundance
- transcript abundance of HOXA9, MEIS1 and MYC (MV4;11 cells [5]; MV4;11, from 3 h to at least 3 days, 1 and 10 μM): downregulated
- expression of ENL target genes (3′ mRNA-seq) (MV4;11 cells [6]): strikingly selective suppression of ENL target genes
- global gene expression (3′ mRNA-seq) (MV4;11 cells [6]): did not elicit global changes in gene expression
- effect on cell growth (MV4;11): inhibited the growth
- effect on cell growth (MOLM-13): inhibited the growth
- effect on cell growth (OCI/AML-2): inhibited the growth
- effect on cell growth (HB11;19): inhibited the growth
- effect on cell growth (JURKAT): unaffected; also recorded: muted antiproliferative activity
- effect on cell growth (HL-60): unaffected; also recorded: muted antiproliferative activity
- effect on cell growth (MOLT-4): neither the T-cell ALL cell line, MOLT-4, nor the renal cell carcinoma cell line, 786-O, were affected
- effect on cell growth (786-O): neither the T-cell ALL cell line, MOLT-4, nor the renal cell carcinoma cell line, 786-O, were affected
- effect on viability (MV4;11 cells [7]): minimal effects
- cell cycle distribution (MV4;11 cells [8]): decrease in the number of cells at the G2 stage of the cell cycle
- number of kinases identified as potential off targets (KINOMEscan, scanMAX) (468 kinases): 4
- bromodomain off targets (BROMOscan, bromoMAX) (32 bromodomains): not a single bromodomain off target was identified

- EC50 (ENL(YEATS)-HiBiT): > 20000 nM
- activity against ENL YEATS (ENL YEATS domain [3]): complete ablation of activity
- IC50 (ENL YEATS domain [3]; [11]): > 50000 nM
Structure (SMILES): CC(C)N(C)C(=O)c1ccc2nc(-c3ccccc3)cn2c1 [compound 2, N-Isopropyl-N-methyl-2-phenylimidazo[1,2-a]pyridine-6-carboxamide]
